Source: patent US20250195513A1, “DEGRADATION OF IRAK4 BY CONJUGATION OF IRAK4 INHIBITORS WITH E3 LIGASE LIGAND AND METHODS OF USE” (BeiGene, Ltd., priority 2022, published 2025)
Like-named read-outs stand apart in the source and are kept apart here.

Molecular target: T1, IRAK4 (Homo sapiens, UniProt Q9NWZ3)
T1 construct: endogenous in cells; host or cells: Karpas299
T1 sequence (Q9NWZ3 1-460): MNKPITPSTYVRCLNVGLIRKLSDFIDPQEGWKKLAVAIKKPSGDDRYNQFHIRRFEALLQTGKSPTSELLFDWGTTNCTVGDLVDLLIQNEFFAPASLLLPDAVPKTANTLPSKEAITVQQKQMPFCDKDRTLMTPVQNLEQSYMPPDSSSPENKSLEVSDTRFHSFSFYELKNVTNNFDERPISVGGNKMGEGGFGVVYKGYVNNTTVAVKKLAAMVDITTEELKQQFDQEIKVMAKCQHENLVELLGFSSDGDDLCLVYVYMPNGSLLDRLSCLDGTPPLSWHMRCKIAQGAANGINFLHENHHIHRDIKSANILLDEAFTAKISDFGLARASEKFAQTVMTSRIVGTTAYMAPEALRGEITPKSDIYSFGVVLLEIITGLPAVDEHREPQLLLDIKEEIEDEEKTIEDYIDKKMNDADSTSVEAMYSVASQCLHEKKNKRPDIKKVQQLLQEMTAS
Test: IRAK4 Degradation Assay (Karpas299, HTRF/TR-FRET)
Type: cell-based
Summary of the method: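 Karpas299 cells at 0.2 million per well were exposed to serially diluted compounds for 24 h or 5 h, then lysed. IRAK4 remaining in lysates was quantified by HTRF (665/620 nm) after overnight antibody incubation at room temperature. Percent degradation was fitted to a four-parameter curve to give IC50 (DC50).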

[1] = Karpas-299 cells, 5 h treatment, maximum percentage of degradation, read-out: IRAK4 in Karpas-299 (5 h) Dmax (%)
[2] = Karpas-299 cells, 5 h treatment, read-out: IRAK4 in Karpas-299 (5 h) DC50
[3] = Karpas-299 cells, 24 h treatment, maximum percentage of degradation, read-out: IRAK4 in Karpas-299 (24 h) Dmax (%)
[4] = Karpas-299 cells, 24 h treatment, read-out: IRAK4 in Karpas-299 (24 h) DC50

Structure (SMILES) | Dmax [1] | DC50 [2] | Dmax [3] | DC50 [4] | DC50 (Degradation (Karpas-299), comparison table, Linker Type A, read-out: Compound (Linker Type A) DC50) | Dmax (Degradation (Karpas-299), comparison table, Linker Type A, read-out: Compound (Linker Type A) Dmax (%))
O=C1CC[C@H](c2c(F)cc(N3CC(C(=O)N4CCN([C@H]5CC[C@H](n6cc7cc(NC(=O)c8cccc(C(F)(F)F)n8)c(C(=O)N[C@H]8C[C@H](CO)C8)cc7n6)CC5)CC4)C3)cc2F)C(=O)N1 [Example 167, 2-((1r,4R)-4-(4-(1-(4-((R)-2,6-dioxopiperidin-3-yl)-3,5-difluorophenyl)azetidine-3-carbonyl)piperazin-1-yl)cyclohexyl)-N-((1r,3R)-3-(hydroxymethyl)cyclobutyl)-5-(6-(trifluoromethyl)picolinamido)-2H-indazole-6-carboxamide] | 94% | 5.3 nM | 99% | 0.8 nM |  | 
O=C1CCN(c2ccc(N3CC(N4CCN(C[C@H]5CC[C@H](n6cc(NC(=O)c7coc(-c8ccnc(NCC(F)(F)F)c8)n7)c(C(F)F)n6)CC5)CC4)C3)cc2)C(=O)N1 [Example 3, N-(3-(difluoromethyl)-1-((1r,4r)-4-((4-(1-(4-(2,4-dioxotetrahydropyrimidin-1(2H)-yl)phenyl)azetidin-3-yl)piperazin-1-yl)methyl)cyclohexyl)-1H-pyrazol-4-yl)-2-(2-((2,2,2-trifluoroethyl)amino)pyridin-4-yl)oxazole-4-carboxamide] |  |  | 9% | > 10000 nM | > 10000 nM | 9%
CC(C)(O)c1cc2nn([C@H]3CC[C@H](N4CCN(C5CCN(c6cc(F)c([C@H]7CCC(=O)NC7=O)c(F)c6)CC5)CC4)CC3)cc2cc1NC(=O)c1coc2cccnc12 [Example 405, N-(2-((1r,4r)-4-(4-(1-(4-((R)-2,6-dioxopiperidin-3-yl)-3,5-difluorophenyl)piperidin-4-yl)piperazin-1-yl)cyclohexyl)-6-(2-hydroxypropan-2-yl)-2H-indazol-5-yl)furo[3,2-b]pyridine-3-carboxamide] |  |  | 96% | 0.9 nM |  | 
CC(C)(O)c1cc2nn([C@H]3C[C@H](N4CCN(C5CN(c6cc(F)c([C@H]7CCC(=O)NC7=O)c(F)c6)C5)CC4)C3)cc2cc1NC(=O)c1ccc2cc(C#N)cnn12 [Example 331, 3-cyano-N-(2-((1R,3r)-3-(4-(1-(4-((R)-2,6-dioxopiperidin-3-yl)-3,5-difluorophenyl)azetidin-3-yl)piperazin-1-yl)cyclobutyl)-6-(2-hydroxypropan-2-yl)-2H-indazol-5-yl)pyrrolo[1,2-b]pyridazine-7-carboxamide] |  |  | 92% | 3.7 nM |  | 
CC(C)(O)c1cc2nn([C@H]3CC[C@H](CN4CCN(C(=O)C5CN(c6cc(F)c([C@H]7CCC(=O)NC7=O)c(F)c6)C5)CC4)CC3)cc2cc1NC(=O)c1csc(-c2cn[nH]c2)n1 [Example 434, N-(2-((1r,4r)-4-((4-(1-(4-((R)-2,6-dioxopiperidin-3-yl)-3,5-difluorophenyl)azetidine-3-carbonyl)piperazin-1-yl)methyl)cyclohexyl)-6-(2-hydroxypropan-2-yl)-2H-indazol-5-yl)-2-(1H-pyrazol-4-yl)thiazole-4-carboxamide] |  |  | 97% | 0.2 nM |  | 
CC(C)(O)c1cc2nn([C@H]3CC[C@H](N4CCN([C@H]5CCN(c6ccc(N7CCC(=O)NC7=O)cc6)C5)CC4)CC3)cc2cc1NC(=O)c1ccc2cc(C#N)cnn12 [Example 295, 3-cyano-N-(2-((1S,4r)-4-(4-((S)-1-(4-(2,4-dioxotetrahydropyrimidin-1(2H)-yl)phenyl)pyrrolidin-3-yl)piperazin-1-yl)cyclohexyl)-6-(2-hydroxypropan-2-yl)-2H-indazol-5-yl)pyrrolo[1,2-b]pyridazine-7-carboxamide] |  |  | 87% | 16 nM |  | 
CC(C)(O)c1cc2nc(C3CCN(C4CN(C(=O)[C@@H]5CCN(c6cc(F)c([C@H]7CCC(=O)NC7=O)c(F)c6)C5)C4)CC3)cn2cc1NC(=O)c1cccc(C(F)(F)F)n1 [Example 50, N-(2-(1-(1-((R)-1-(4-((R)-2,6-dioxopiperidin-3-yl)-3,5-difluorophenyl)pyrrolidine-3-carbonyl)azetidin-3-yl)piperidin-4-yl)-7-(2-hydroxypropan-2-yl)imidazo[1,2-a]pyridin-6-yl)-6-(trifluoromethyl)picolinamide] | 78% | 2.2 nM | 94% | 1.5 nM |  | 
O=C1CC[C@H](c2c(F)cc(N3CC(CN4CCN([C@H]5CC[C@H](n6cc(NC(=O)c7coc(-c8ccnc(NCC9CC9)c8)n7)c(C(F)F)n6)CC5)CC4)C3)cc2F)C(=O)N1 [Example 27, 2-(2-((cyclopropylmethyl)amino)pyridin-4-yl)-N-(3-(difluoromethyl)-1-((1r,4r)-4-(4-((1-(4-((R)-2,6-dioxopiperidin-3-yl)-3,5-difluorophenyl)azetidin-3-yl)methyl)piperazin-1-yl)cyclohexyl)-1H-pyrazol-4-yl)oxazole-4-carboxamide] |  |  | 99% | 2.8 nM |  | 
CC(C)(O)c1cc2nn([C@H]3CC[C@H](N4CCN(C(=O)C5CN(c6cc(F)c([C@H]7CCC(=O)NC7=O)c(F)c6)C5)CC4)CC3)cc2cc1NC(=O)c1cnn2cc(C#N)cnc12 [Example 411, 6-cyano-N-(2-((1r,4r)-4-(4-(1-(4-((R)-2,6-dioxopiperidin-3-yl)-3,5-difluorophenyl)azetidine-3-carbonyl)piperazin-1-yl)cyclohexyl)-6-(2-hydroxypropan-2-yl)-2H-indazol-5-yl)pyrazolo[1,5-a]pyrimidine-3-carboxamide] |  |  | 9% | > 10000 nM |  | 
O=C1CC[C@H](c2c(F)cc(N3CC(C(=O)N4CCN([C@H]5CC[C@H](n6cc(NC(=O)c7coc(-c8ccnc(NCC9CC9)c8)n7)c(C(F)F)n6)CC5)CC4)C3)cc2F)C(=O)N1 [Example 25, 2-(2-((cyclopropylmethyl)amino)pyridin-4-yl)-N-(3-(difluoromethyl)-1-((1r,4r)-4-(4-(1-(4-((R)-2,6-dioxopiperidin-3-yl)-3,5-difluorophenyl)azetidine-3-carbonyl)piperazin-1-yl)cyclohexyl)-1H-pyrazol-4-yl)oxazole-4-carboxamide] |  |  | 99% | 2.5 nM |  | 
NC(=O)c1nn(-c2ccc(N3CCN(C(=O)[C@@H]4CCN(c5cc(F)c([C@H]6CCC(=O)NC6=O)c(F)c5)C4)CC3)nc2)cc1NC(=O)c1coc(-c2ccnc(NCC(F)(F)F)c2)n1 [Example 166, N-(3-carbamoyl-1-(6-(4-((R)-1-(4-((R)-2,6-dioxopiperidin-3-yl)-3,5-difluorophenyl)pyrrolidine-3-carbonyl)piperazin-1-yl)pyridin-3-yl)-1H-pyrazol-4-yl)-2-(2-((2,2,2-trifluoroethyl)amino)pyridin-4-yl)oxazole-4-carboxamide] |  |  | 96% | 2.6 nM |  | 
O=C1CC[C@H](c2c(F)cc(N3CCC(CN4CCN([C@H]5CC[C@H](n6cc(NC(=O)c7coc(-c8ccnc(NCC(F)(F)F)c8)n7)c(C(F)F)n6)CC5)CC4)CC3)cc2F)C(=O)N1 [Example 20, N-(3-(difluoromethyl)-1-((1r,4r)-4-(4-((1-(4-((R)-2,6-dioxopiperidin-3-yl)-3,5-difluorophenyl)piperidin-4-yl)methyl)piperazin-1-yl)cyclohexyl)-1H-pyrazol-4-yl)-2-(2-((2,2,2-trifluoroethyl)amino)pyridin-4-yl)oxazole-4-carboxamide] |  |  | 97% | 4.8 nM |  | 
